From patent US11319283B2, “Substituted cyclobutylbenzene compounds as indoleamine 2,3-dioxygenase (IDO) inhibitors” (MERCK SHARP & DOHME CORP., priority 2017, dated 2022)

What was measured:
TDO = target: T1, TDO (Homo sapiens, UniProt P48775); assay: TDO Cellular Assay in Frozen SW48 Cells; assay type: cell-based; details: 300 uM L-tryptophan, about 48 hours, fluorescence readout
T1 construct: endogenous in cells; host or cells: SW48 cells (A2780 cells as control with minimal TDO activity)
Method: TDO Cellular Assay in Frozen SW48 Cells
SW48 cells were cultured in complete RPMI culture medium (90% RPMI, 10% heat-inactivated fetal bovine serum).
Compounds to be tested were serially diluted in ten 3-fold steps in DMSO starting from 10 mM DMSO stocks in Echo low volume plate(s). […] The cells were spun down at 350 g in a table top centrifuge for 5 minutes and suspended in same volume of RPMI assay medium. […] Sterile L-tryptophan (Sigma, Cat # T0254) was added to the cells with final concentration of 300 uM.
SW48 and A2780 cells were dispensed to the respective wells of 384-well assay plates containing the compounds. The plates were incubated for about 48 hours at a 37° C., 5% CO2 incubator. Afterwards, 12 μL of 0.5 M ethyl isonipecotate (Sigma Aldrich, Cat # E33505) in dimethyl sulfoxide were added into each well and the plates were sealed and incubated at 37° C. without CO2 overnight. The plates were centrifuged for 1 minute at 200×g. The resulting fluorescence was measured in a Spectramax plate reader (Molecular Devices) with a 400 nm excitation filter and a 510 nm emission filter.
The fluorescence intensity of each well was corrected for the background observed in wells with A2780 cells and was expressed as a fraction of the intensity observed in wells of SW48 cells and DMSO only. Potencies were calculated by linear least squares fit to the four parameter logistic IC50 equation.

IDO1 = IDO1 (Homo sapiens, UniProt P14902); assay: IDO1 Cellular Assay in Hela Cells Stimulated with IFNγ; assay type: cell-based; design: endogenous in cells; host or cells: HeLa cells stimulated with IFNγ (100 ng/mL); details: Hela cells stimulated with IFNγ 100 ng/mL, 300 uM L-tryptophan, about 48 hours, fluorescence readout
Method: IDO1 Cellular Assay in Hela Cells Stimulated with IFNγ
Hela cells were cultured in complete Hela culture medium (90% EMEM, 10% heat-inactivated fetal bovine serum) and expanded to about 1×10^9 cells. The cells were then collected and frozen down at 1×10^7 cells/vial in 1 mL frozen medium (90% complete Hela culture medium, 10% DMSO)
Compounds to be tested were serially diluted in ten 3-fold steps in DMSO starting from 10 mM DMSO stocks in Echo low volume plate(s).
Frozen Hela cells were thawed and transferred into Hela assay medium (99% complete Hela culture medium, 1% Pen/Strep) with 20 mL medium/vial of cells. The cells were spun down at 250 g in a table top centrifuge for 5 min and suspended in same volume of Hela assay medium. The cells were then counted and adjusted to a density of 2×10^5 cells/ml in Hela assay medium. Sterile L-tryptophan were added to the cells with final concentration of 300 uM L-tryptophan. A small aliquot (2 mL/plate) of Hela cells were set aside and were not treated with IFNγ, to serve as the Max-E control.
Hela cells with and without IFNγ were dispensed to the respective wells of 384-well assay plates containing the compounds. The plates were incubated for about 48 hours at a 37° C., 5% CO2 incubator. Afterwards, […] of 0.5 M methyl isonipecotate in dimethyl sulfoxide were added into each well and the plates were sealed and incubated at 37° C. without CO2 overnight. The plates were centrifuged for 1 min at 200×g. The resulting fluorescence was measured in a Spectramax plate reader (Molecular Devices) with a 400 nm excitation filter and a 510 nm emission filter.
Potencies were calculated by linear least squares fit to the four parameter logistic IC50 equation.

Chain of IDO1 (P14902 whole entry): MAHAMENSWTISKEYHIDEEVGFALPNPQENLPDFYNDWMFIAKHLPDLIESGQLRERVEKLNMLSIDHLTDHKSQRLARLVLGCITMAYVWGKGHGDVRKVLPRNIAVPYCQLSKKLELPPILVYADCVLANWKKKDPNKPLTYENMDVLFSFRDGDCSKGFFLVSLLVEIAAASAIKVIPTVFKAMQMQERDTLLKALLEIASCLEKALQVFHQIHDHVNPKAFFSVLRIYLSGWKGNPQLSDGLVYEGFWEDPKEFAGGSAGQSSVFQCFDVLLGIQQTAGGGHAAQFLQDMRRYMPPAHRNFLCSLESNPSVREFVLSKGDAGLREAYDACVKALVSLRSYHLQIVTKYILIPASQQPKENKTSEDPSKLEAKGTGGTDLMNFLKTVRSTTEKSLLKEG
T1 sequence (P48775 whole entry): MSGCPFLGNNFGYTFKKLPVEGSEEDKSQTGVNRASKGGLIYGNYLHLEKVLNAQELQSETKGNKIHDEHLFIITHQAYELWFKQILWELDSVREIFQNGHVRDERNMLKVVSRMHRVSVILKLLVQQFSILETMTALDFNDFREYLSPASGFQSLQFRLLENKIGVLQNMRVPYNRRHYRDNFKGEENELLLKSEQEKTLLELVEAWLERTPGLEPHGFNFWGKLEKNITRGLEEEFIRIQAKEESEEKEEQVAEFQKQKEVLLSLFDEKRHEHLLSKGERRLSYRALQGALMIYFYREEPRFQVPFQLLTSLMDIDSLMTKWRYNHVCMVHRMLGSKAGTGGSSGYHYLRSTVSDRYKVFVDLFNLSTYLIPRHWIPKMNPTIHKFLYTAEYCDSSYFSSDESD

SMILES | IC50 (TDO) [nM] | IC50 (IDO1) [nM]
O=C(Nc1ccc(C2(NC(=O)c3ccc(Cl)c(F)c3)CCC2)cc1)c1cccc(Cl)c1 [Example 8, 4-chloro-N-(1-{4-[(3-chlorobenzene-1-carbonyl)amino]phenyl}cyclobutyl)-3-fluorobenzamide] | ≥ 10000 | 4
O=C(Nc1ccc(C2(NC(=O)c3ccc(Cl)cn3)CCC2)cc1)c1cccc(Cl)c1 [Example 9, 5-chloro-N-(1-{4-[(3-chlorobenzene-1-carbonyl)amino]phenyl}cyclobutyl)pyridine-2-carboxamide] | ≥ 10000 | 11
O=C(Nc1ccc(C2(NC(=O)c3ccc(F)c(F)c3)CCC2)cc1)c1cccc(Cl)c1 [Example 10, N-(1-{4-[(3-chlorobenzene-1-carbonyl)amino]phenyl}cyclobutyl)-3,4-difluorobenzamide] | ≥ 10000 | 14
O=C(Nc1ccc(C2(NC(=O)c3ccc(Cl)c(Cl)c3)CCC2)cc1)c1cccc(Cl)c1 [Example 11, 3,4-dichloro-N-(1-{4-[(3-chlorobenzene-1-carbonyl)amino]phenyl}cyclobutyl)benzamide] | ≥ 10000 | 19
Cn1ccc(C(=O)NC2(c3ccc(NC(=O)c4cccc(Cl)c4)cc3)CCC2)n1 [Example 13, N-(1-{4-[(3-chlorobenzene-1-carbonyl)amino]phenyl}cyclobutyl)-1-methyl-1H-pyrazole-3-carboxamide] | ≥ 10000 | 30
O=C(Nc1ccc(C2(NC(=O)c3cocn3)CCC2)cc1)c1cccc(Cl)c1 [Example 16, N-(1-{4-[(3-chlorobenzene-1-carbonyl)amino]phenyl}cyclobutyl)-1,3-oxazole-4-carboxamide] | ≥ 10000 | 92
O=C(Nc1ccc(C2(C(=O)Nc3ccc(Cl)cc3)CCC2)cc1)c1cccc(Cl)c1 [Example 24, 3-chloro-N-(4-{1-[(4-chlorophenyl)carbamoyl]cyclobutyl}phenyl) benzamide] | ≥ 10000 | 3
O=C(Nc1ccc(C2(C(=O)Nc3ccc(F)cc3F)CCC2)cc1)c1cccc(Cl)c1 [Example 25, 3-chloro-N-(4-{1-[(2,4-difluorophenyl)carbamoyl]cyclobutyl}phenyl) benzamide] | ≥ 10000 | 3

Further lines, results first:

IC50 (TDO) [nM] | IC50 (IDO1) [nM] | SMILES
≥ 10000 | 35 | CC1CC1NC(=O)C1(c2ccc(NC(=O)c3cccc(Cl)c3)cc2)CCC1 (single isomer, unassigned) [Example 22, 3-chloro-N-(4-(1-((2-methylcyclopropyl)carbamoyl)cyclobutyl)phenyl)benzamide]
≥ 10000 | 78 | CC1CC1NC(=O)C1(c2ccc(NC(=O)c3cccc(Cl)c3)cc2)CCC1 (single isomer, unassigned) [Example 23, 3-chloro-N-(4-(1-((2-methylcyclopropyl)carbamoyl)cyclobutyl)phenyl)benzamide]
≥ 10000 | 131 | O=C(Nc1ccc(C2(NC(=O)c3cnccn3)CCC2)cc1)c1cccc(Cl)c1 [Example 3, N-(1-{4-[(3-chlorobenzene-1-carbonyl)amino]phenyl}cyclobutyl)pyrazine-2-carboxamide]
≥ 10000 | 136 | O=C(Nc1ccc(C2(NC(=O)c3ncccc3Cl)CCC2)cc1)c1cccc(Cl)c1 [Example 4, 3-chloro-N-(1-{4-[(3-chlorobenzene-1-carbonyl)amino]phenyl}cyclobutyl)pyridine-2-carboxamide]
≥ 10000 | 136 | O=C(Nc1ccc(C2(NC(=O)c3cc(Cl)ccn3)CCC2)cc1)c1cccc(Cl)c1 [Example 5, 4-chloro-N-(1-{4-[(3-chlorobenzene-1-carbonyl)amino]phenyl}cyclobutyl)pyridine-2-carboxamide]
≥ 10000 | 577 | Cn1ccnc1C(=O)NC1(c2ccc(NC(=O)c3cccc(Cl)c3)cc2)CCC1 [Example 6, N-(1-{4-[(3-chlorobenzene-1-carbonyl)amino]phenyl}cyclobutyl)-1-methyl-1H-imidazole-2-carboxamide]
